Results published in publication PMC12587545, “Noncytotoxic polymyxin derivatives enhance antibiotic action against multidrug-resistant Gram-negative bacteria” (Antimicrobial Agents and Chemotherapy, 2025).
Where “and” joins values, the source holds several entries; their conditions need not be identical. Identical values can stand only once. Entries after “also recorded” stand apart in the source; their conditions may differ.

Legend:
[1] = tested on: A. baumannii; experiment: Checkerboard assay (antibiotic potentiation); type: cell-based, Acinetobacter baumannii
[2] = tested on: A. baumannii AB027; experiment: Time-kill kinetics assay
Procedure: Bactericidal and bacteriostatic activity correspond to a ≥ 3 log10 and a < 3 log10 decrease in bacterial load after 24 h relative to the starting inoculum, respectively ([39]).
The time- and concentration-dependent killing of the antibiotic/compound combinations was assessed using the time-kill kinetics assay by following a previously described protocol ([27][–][29]). Bacterial culture grown overnight was diluted in phosphate-buffered saline (PBS) to 0.5 McFarland turbidity and was further diluted 1:50 in LB. Bacterial cultures treated with varying concentrations of antibiotic alone, compound alone, or the combination of antibiotic and compound were incubated in a shaking incubator at 250 rpm and at 37°C. At designated time points, 100 µL aliquots were taken from the culture tubes, serially diluted in PBS, and plated on LB agar plates. The bacterial colonies were then counted after incubation of the plates for 18 h at 37°C.

[3] = tested on: K. pneumoniae; experiment: Checkerboard assay (antibiotic potentiation); type: cell-based, Klebsiella pneumoniae; conditions: for MICantibiotic + compound: antibiotic MIC with 8 µg/mL (5 µM) compound 1; for MICantibiotic: antibiotic alone; for Potentiation: of antibiotic by 8 µg/mL (5 µM) compound 1
[4] = tested on: E. coli; experiment: Checkerboard assay (antibiotic potentiation); type: cell-based, Escherichia coli; conditions: for Interpretation: antibiotic + compound 1; for MICantibiotic + compound: antibiotic MIC with 8 µg/mL (5 µM) compound 1; for MICantibiotic: antibiotic alone; for Potentiation: of antibiotic by 8 µg/mL (5 µM) compound 1
[5] = tested on: MDR Gram-negative bacteria clinical isolates; experiment: Checkerboard assay, summary over strains; type: cell-based; conditions: of all 14 clinical isolates; number (%)
[6] = A. baumannii ATCC 17978, 0% FBS, zoliflodacin + compound 1
[7] = A. baumannii ATCC 17978, [Mg2+] 25 mM, zoliflodacin + compound 1
[8] = A. baumannii ATCC 17978, [Mg2+] 0.4–0.5 mM, zoliflodacin + compound 1
[9] = A. baumannii ATCC 17978, antibiotic + compound 1
[10] = K. pneumoniae 113250 (colistin-resistant)
[11] = K. pneumoniae 116381, antibiotic + compound 1
[12] = E. coli 94393 (colistin-resistant)
[13] = E. coli 94474 (colistin-resistant)

## C[C@@H]1CN2c3c(cc4c(N5C(=O)OC[C@@H]5C)noc4c3F)CC3(C(=O)NC(=O)NC3=O)[C@H]2[C@H](C)O1 [Zoliflodacin]
[1]; A. baumannii 110193, antibiotic + compound 1
  Interpretation: Synergy (FIC indices of ≤0.5 is synergistic)
[1]; A. baumannii 110193, antibiotic MIC with 4 µg/mL (2 µM) compound 1
  MICantibiotic + compound: 8 µg/mL
[1]; A. baumannii 110193, antibiotic alone
  MICantibiotic: 256 µg/mL
[1]; A. baumannii 110193, of antibiotic by 4 µg/mL (2 µM) compound 1
  Potentiation: 32 fold
[1]; A. baumannii AB027, antibiotic + compound 1
  Interpretation: Synergy (FIC indices of ≤0.5 is synergistic)
[1]; A. baumannii AB027, antibiotic MIC with 4 µg/mL (2 µM) compound 1
  MICantibiotic + compound: 0.25 µg/mL
[1]; A. baumannii AB027, antibiotic alone
  MICantibiotic: 16 µg/mL
[1]; A. baumannii AB027, of antibiotic by 4 µg/mL (2 µM) compound 1
  Potentiation: 64 fold
[1]; A. baumannii AB031, antibiotic + compound 1
  Interpretation: Synergy (FIC indices of ≤0.5 is synergistic)
[1]; A. baumannii AB031, antibiotic MIC with 4 µg/mL (2 µM) compound 1
  MICantibiotic + compound: 4 µg/mL
[1]; A. baumannii AB031, antibiotic alone
  MICantibiotic: 128 µg/mL
[1]; A. baumannii AB031, of antibiotic by 4 µg/mL (2 µM) compound 1
  Potentiation: 32 fold
[1]; A. baumannii ATCC 17978, 0% FBS, of zoliflodacin by 4 µg/mL compound 1
  Potentiation: ≥128-fold
[1]; [6]
  FIC index: 0.258
  Interpretation: Synergy (FIC indices of ≤0.5 is synergistic)
[1]; A. baumannii ATCC 17978, 0% FBS, zoliflodacin MIC with 4 µg/mL compound 1
  MICantibiotic + compound: 0.031 µg/mL
[1]; A. baumannii ATCC 17978, 0% FBS, zoliflodacin alone
  MICantibiotic: 4 µg/mL
[1]; A. baumannii ATCC 17978, 10% FBS, of zoliflodacin by 4 µg/mL compound 1
  Potentiation: 32 fold
[1]; A. baumannii ATCC 17978, 10% FBS, zoliflodacin + compound 1
  Interpretation: Synergy (FIC indices of ≤0.5 is synergistic)
[1]; A. baumannii ATCC 17978, 10% FBS, zoliflodacin MIC with 4 µg/mL compound 1
  MICantibiotic + compound: 0.5 µg/mL
[1]; A. baumannii ATCC 17978, 10% FBS, zoliflodacin alone
  MICantibiotic: 16 µg/mL
[1]; A. baumannii ATCC 17978, 25% FBS, of zoliflodacin by 4 µg/mL compound 1
  Potentiation: 8 fold
[1]; A. baumannii ATCC 17978, 25% FBS, zoliflodacin + compound 1
  Interpretation: Synergy (FIC indices of ≤0.5 is synergistic)
[1]; A. baumannii ATCC 17978, 25% FBS, zoliflodacin MIC with 4 µg/mL compound 1
  MICantibiotic + compound: 2 µg/mL
[1]; A. baumannii ATCC 17978, 25% FBS, zoliflodacin alone
  MICantibiotic: 16 µg/mL
[1]; A. baumannii ATCC 17978, 50% FBS, of zoliflodacin by 4 µg/mL compound 1
  Potentiation: 2 fold
[1]; A. baumannii ATCC 17978, 50% FBS, zoliflodacin + compound 1
  Interpretation: Additive (0.5 < × ≤ 4 is additive)
[1]; A. baumannii ATCC 17978, 50% FBS, zoliflodacin MIC with 4 µg/mL compound 1
  MICantibiotic + compound: 32 µg/mL
[1]; A. baumannii ATCC 17978, 50% FBS, zoliflodacin alone
  MICantibiotic: 64 µg/mL
[1]; A. baumannii ATCC 17978, [Mg2+] 25 mM, of zoliflodacin by 4 µg/mL compound 1
  Potentiation: ≥64-fold
[1]; [7]
  FIC index: x < 0.063
  Interpretation: Synergy (FIC indices of ≤0.5 is synergistic)
[1]; A. baumannii ATCC 17978, [Mg2+] 25 mM, zoliflodacin MIC with 4 µg/mL compound 1
  MICantibiotic + compound: 4 µg/mL
[1]; A. baumannii ATCC 17978, [Mg2+] 25 mM, zoliflodacin alone
  MICantibiotic: >32 µg/mL
[1]; A. baumannii ATCC 17978, [Mg2+] 0.4–0.5 mM, of zoliflodacin by 4 µg/mL compound 1
  Potentiation: ≥128-fold
[1]; [8]
  FIC index: 0.258
  Interpretation: Synergy (FIC indices of ≤0.5 is synergistic)
[1]; A. baumannii ATCC 17978, [Mg2+] 0.4–0.5 mM, zoliflodacin MIC with 4 µg/mL compound 1
  MICantibiotic + compound: 0.031 µg/mL
[1]; A. baumannii ATCC 17978, [Mg2+] 0.4–0.5 mM, zoliflodacin alone
  MICantibiotic: 4 µg/mL
[1]; [9]
  FIC index: 0.258
  Interpretation: Synergy (FIC indices of ≤0.5 is synergistic)
[1]; A. baumannii ATCC 17978, antibiotic + compound 3
  Interpretation: Additive (0.5 < × ≤ 4 is additive)
[1]; A. baumannii ATCC 17978, antibiotic MIC with 8 µg/mL (5 µM) compound 3
  MICantibiotic + compound: 2 µg/mL
[1]; A. baumannii ATCC 17978, antibiotic alone
  MICantibiotic: 2 µg/mL and 4 µg/mL
[1]; A. baumannii ATCC 17978, of antibiotic by 8 µg/mL (5 µM) compound 3
  Potentiation: 1 fold
[2]; 0.5 µg/mL zoliflodacin + 8 µg/mL (5 µM) compound 1
  time-kill outcome: appeared to eradicate the bacteria at 8 h; also recorded: slight regrowth after 24 h
[2]; 8 µg/mL zoliflodacin + 8 µg/mL (5 µM) compound 1
  time-kill outcome: appeared to eradicate the bacteria at 8 h
[2]; monotherapy at 0.5 µg/mL
  time-kill outcome: growth curves similar to that of untreated bacteria
[2]; monotherapy at 8 µg/mL, LB, 37°C, up to 24 h
  time-kill outcome: initially decreased bacterial loads, regrowth occurred after 8 h
[2]; zoliflodacin + compound 1, both 8 µg/mL, after 24 h
  decrease in bacterial load from the starting inoculum and from the most active monotherapy: ≥ 2 log10
[3]; K. pneumoniae 113250 (colistin-resistant), antibiotic + compound 1
  Interpretation: Synergy (FIC indices of ≤0.5 is synergistic)
[3]; [10]
  MICantibiotic + compound: 4 µg/mL
  MICantibiotic: 128 µg/mL
  Potentiation: 32 fold
[3]; [11]
  FIC index: 0.063
  Interpretation: Synergy (FIC indices of ≤0.5 is synergistic)
[3]; K. pneumoniae 116381
  MICantibiotic + compound: 0.25 µg/mL
  MICantibiotic: 256 µg/mL
  Potentiation: ≥512-fold
[4]; [12]
  Interpretation: Synergy (FIC indices of ≤0.5 is synergistic)
  MICantibiotic + compound: 2 µg/mL
  MICantibiotic: 64 µg/mL
  Potentiation: 32 fold
[4]; [13]
  Interpretation: Synergy (FIC indices of ≤0.5 is synergistic)
  MICantibiotic + compound: 4 µg/mL
  MICantibiotic: 64 µg/mL
  Potentiation: 16 fold
[5]
  clinical isolates in which the antibiotic was synergized by compound 1: 12 (86%) strains
